# Laboratory results from ChEMBL document CHEMBL3865816, “Design, synthesis and biological evaluation of novel azaspiro analogs of linezolid as antibacterial and antitubercular agents” (Eur J Med Chem, 2016).
# Assays:
# Assay type in all cases: functional
# [1] = test system: Mycobacterium tuberculosis variant bovis; assay: Antitubercular activity against dormant stage Mycobacterium bovis BCG ATCC 35734 at 3 ug/ml measured after 12 days by nitrate reductase assay; conditions: ATCC 35734, 288 h
# [2] = test system: Mycobacterium tuberculosis variant bovis; assay: Antitubercular activity against dormant stage Mycobacterium bovis BCG ATCC 35734 at 30 ug/ml measured after 12 days by nitrate reductase assay; conditions: ATCC 35734, 288 h
# [3] = test system: Mycobacterium tuberculosis variant bovis; assay: Antitubercular activity against dormant stage Mycobacterium bovis BCG ATCC 35734 at 10 ug/ml measured after 12 days by nitrate reductase assay; conditions: ATCC 35734, 288 h
# [4] = test system: Mycobacterium tuberculosis variant bovis; assay: Antitubercular activity against dormant stage Mycobacterium bovis BCG ATCC 35734 measured after 12 days by nitrate reductase assay; conditions: ATCC 35734, 288 h
# [5] = test system: Mycobacterium tuberculosis variant bovis; assay: Antitubercular activity against active stage Mycobacterium bovis BCG ATCC 35734 measured after 8 days by nitrate reductase assay; conditions: ATCC 35734, 192 h
SMILES,inhibition at 3 µg/mL [1] [%],inhibition at 30 µg/mL [2] [%],inhibition at 10 µg/mL [3] [%],IC50 [4] [µg/mL],MIC [4] [µg/mL],IC50 [5] [µg/mL],MIC [5] [µg/mL]
CC(=O)OCC(=O)NC[C@H]1CN(c2ccc(N3CC4(COC4)C3)c(F)c2)C(=O)O1,99.2,99.4,99.6,3.05,5.77,3.35,6.32
O=C1O[C@@H](CNC(=S)Nc2ccc(Cl)cc2)CN1c1ccc(N2CC3(COC3)C2)c(F)c1,-1.89,-26.1,-10.1,> 100,> 100,–,–
NC[C@H]1CN(c2ccc(N3CC4(COC4)C3)c(F)c2)C(=O)O1,-0.29,89.4,52,17.3,24.4,15.7,29.5
CC(C)(C)NC(=S)NC[C@H]1CN(c2ccc(N3CC4(COC4)C3)c(F)c2)C(=O)O1,-9.84,33.6,-3.89,> 100,> 100,–,–
CC1(C)[C@@]2(C)CC[C@]1(C(=O)NC[C@H]1CN(c3ccc(N4CC5(COC5)C4)c(F)c3)C(=O)O1)OC2=O,-35.3,8.27,3.86,> 100,> 100,–,–
O=C1OC2(CCNC2)CN1c1ccc(N2CCOCC2)c(F)c1 (centres undefined),-3.11,-7.3,-16.8,> 100,> 100,–,–
O=C1O[C@@H](CNS(=O)(=O)c2cc(Cl)cc(Cl)c2)CN1c1ccc(N2CC3(COC3)C2)c(F)c1,25.9,3.87,-2.28,> 100,> 100,–,–
OC1(CNc2ccc(N3CCOCC3)c(F)c2)CCN(Cc2ccccc2)C1 (centres undefined),-6.7,-1.83,-6.66,> 100,> 100,–,–
O=C1OC2(CCN(Cc3ccccc3)C2)CN1c1ccc(N2CCOCC2)c(F)c1 (centres undefined),-11.8,-11.2,-9.32,> 100,> 100,–,–
CC(=O)NC[C@H]1CN(c2ccc(N3CC4(COC4)C3)c(F)c2)C(=O)O1,99.1,95.9,100,0.81,1.67,0.79,1.83
CC(C)NC(=S)NC[C@H]1CN(c2ccc(N3CC4(COC4)C3)c(F)c2)C(=O)O1,21.9,94.4,74.6,> 100,> 100,–,–
CC(=O)NC[C@H]1CN(c2ccc(N3CCOCC3)c(F)c2)C(=O)O1 [LINEZOLID],101,101,101,0.31,0.43,0.029,0.42
CC(=O)NC[C@H]1CN(c2ccc(C3=C[C@H]4CC[C@@H](C3)N4C(=O)OC(C)(C)C)c(F)c2)C(=O)O1,57.9,96.3,89.3,5.82,23.1,4.35,31.2
O=C1O[C@@H](CNS(=O)(=O)c2cccc(C(F)(F)F)c2)CN1c1ccc(N2CC3(COC3)C2)c(F)c1,-2.23,-5.29,-6.57,> 100,> 100,–,–
O=C(NC[C@H]1CN(c2ccc(N3CC4(COC4)C3)c(F)c2)C(=O)O1)c1cccnc1,76.2,102,101,> 100,> 100,–,–
COc1ccc(NC(=S)NC[C@H]2CN(c3ccc(N4CC5(COC5)C4)c(F)c3)C(=O)O2)cc1,18.9,73.2,63,> 100,> 100,–,–
O=C1O[C@@H](CNC(=O)C23CC4CC(CC(C4)C2)C3)CN1c1ccc(N2CC3(COC3)C2)c(F)c1,11.8,62.6,44.1,> 100,> 100,–,–
O=C1O[C@@H](CNS(=O)(=O)c2ccc(Cl)s2)CN1c1ccc(N2CC3(COC3)C2)c(F)c1,34.8,91.7,83.5,> 100,> 100,–,–
O=C1O[C@@H](CNC(=S)Nc2cccc(C(F)(F)F)c2)CN1c1ccc(N2CC3(COC3)C2)c(F)c1,29.6,94.8,83.9,> 100,> 100,–,–
O=C(NC[C@H]1CN(c2ccc(N3CC4(COC4)C3)c(F)c2)C(=O)O1)c1ccc(C(F)(F)F)cc1,65,73.1,8.62,> 100,> 100,–,–
CC(=O)N1CCC2(C1)CN(c1ccc(N3CCOCC3)c(F)c1)C(=O)O2 (centres undefined),-2.09,8.79,-3.02,> 100,> 100,–,–
COCC(=O)NC[C@H]1CN(c2ccc(N3CC4(COC4)C3)c(F)c2)C(=O)O1,74.5,98.6,97.2,> 100,> 100,–,–
N#Cc1ccc(NC(=S)NC[C@H]2CN(c3ccc(N4CC5(COC5)C4)c(F)c3)C(=O)O2)cc1,97.4,88.1,97.2,> 100,> 100,–,–
O=C(NC[C@H]1CN(c2ccc(N3CC4(COC4)C3)c(F)c2)C(=O)O1)c1ccno1,66.9,89,86.1,4.83,10.1,4.11,9.82
O=C1O[C@@H](CNC(=S)Nc2ccc([N+](=O)[O-])cc2)CN1c1ccc(N2CC3(COC3)C2)c(F)c1,39.9,-6.89,-15.8,> 100,> 100,–,–
O=C(NC[C@H]1CN(c2ccc(N3CC4(COC4)C3)c(F)c2)C(=O)O1)Nc1ccc(Cl)cc1,-5.78,28.6,-3.58,> 100,> 100,–,–
O=C1O[C@@H](CNC(=S)Nc2ccccc2F)CN1c1ccc(N2CC3(COC3)C2)c(F)c1,42.1,94.7,92.9,17.7,61.2,13.1,44.5
O=C1O[C@@H](CNS(=O)(=O)c2cc([N+](=O)[O-])ccc2Cl)CN1c1ccc(N2CC3(COC3)C2)c(F)c1,11.1,15,11.6,> 100,> 100,–,–
